2 compounds from ChEMBL document CHEMBL1201862, “PubChem BioAssay data set” (2004) can be followed below.

Calls of active or inactive are those of the source.

One assay addresses T1, Protein RecA (Mycobacterium tuberculosis, UniProt P9WHJ3).
T1 sequence (P9WHJ3 whole entry): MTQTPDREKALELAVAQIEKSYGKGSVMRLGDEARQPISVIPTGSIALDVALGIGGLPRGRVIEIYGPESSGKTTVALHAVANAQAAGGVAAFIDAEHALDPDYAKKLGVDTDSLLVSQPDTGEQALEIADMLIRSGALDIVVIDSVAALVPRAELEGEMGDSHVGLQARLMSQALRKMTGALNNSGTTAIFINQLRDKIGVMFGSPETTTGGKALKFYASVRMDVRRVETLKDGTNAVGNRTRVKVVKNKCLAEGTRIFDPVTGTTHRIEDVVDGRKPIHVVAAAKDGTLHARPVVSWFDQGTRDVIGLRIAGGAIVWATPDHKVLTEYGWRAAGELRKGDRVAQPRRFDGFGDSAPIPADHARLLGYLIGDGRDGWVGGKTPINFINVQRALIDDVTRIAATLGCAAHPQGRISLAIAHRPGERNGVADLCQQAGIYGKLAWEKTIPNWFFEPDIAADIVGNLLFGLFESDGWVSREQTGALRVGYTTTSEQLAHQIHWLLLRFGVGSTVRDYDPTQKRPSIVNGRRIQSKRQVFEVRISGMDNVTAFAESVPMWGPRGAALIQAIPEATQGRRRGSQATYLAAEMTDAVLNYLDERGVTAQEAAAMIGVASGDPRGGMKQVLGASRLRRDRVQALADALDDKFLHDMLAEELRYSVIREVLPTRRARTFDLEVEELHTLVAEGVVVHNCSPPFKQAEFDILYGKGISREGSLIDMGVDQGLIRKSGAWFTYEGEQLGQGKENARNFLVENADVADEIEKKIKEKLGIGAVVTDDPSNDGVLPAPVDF
Put plainly: Fluorescence Cell-Free Homogeneous Dose Retest to Identify Inhibitors of RecA-Intein Splicing Activity. [Related pubchem assays (depositor defined):AID2097, AID2223, AID489010, AID492950]. In kind it is functional.

The nature of assay [1]: microbe, parasite or virus in culture. In kind it is functional. As to conditions: Mycobacterium tuberculosis.
Assay [2] concerns HEK293. Put plainly: NOD1 signaling inhibitors, primary screen, cell-based, luminescence, uHTS (AID 1578). As to conditions: Homo sapiens. It counts as functional.
For assay [3], the target named is DNA damage-inducible transcript 3 protein (Mus musculus, UniProt P35639). In kind it is functional, Cricetulus griseus.
Chain of DNA damage-inducible transcript 3 protein (P35639 whole entry): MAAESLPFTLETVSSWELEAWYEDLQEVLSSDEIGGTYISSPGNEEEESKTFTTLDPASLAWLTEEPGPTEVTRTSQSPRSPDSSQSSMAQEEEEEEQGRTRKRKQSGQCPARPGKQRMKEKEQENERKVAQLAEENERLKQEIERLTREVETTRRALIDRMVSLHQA
Assay [4] can be described thus: cytotoxicity toward DRD oncogenic fibroblasts, dose response, cell-based, non-viral oncogenic, luminescence (AID 1934). In kind it is functional. As to conditions: Homo sapiens.
Assay [5] relates to HEK293. The assay is described as follows: cells. In kind it is functional, cell-based. As to conditions: Homo sapiens.
Assay [6] concerns BJ. The assay is described as follows: cells. In kind it is functional, cell-based. As to conditions: Homo sapiens.
Assay [7] has as its system BJ. The assay is described as follows: cytotoxicity toward BJ-TERT-LT-ST fibroblasts, dose response, cell-based, RAS-independent, luminescence (AID 1935).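 Also: BJ fibroblasts immortalized with TERT plus LT and ST oncogenes.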 It counts as functional. As to conditions: Homo sapiens.
Assay [8] concerns BJ. Put plainly: cytotoxicity toward BJ-TERT fibroblasts, dose response, cell-based, RAS-independent, luminescence (AID 1933). As to conditions: Homo sapiens. It counts as functional.
Assay [9] deals with Nucleotide-binding oligomerization domain-containing protein 2 (Homo sapiens, UniProt Q9HC29). The assay is described as follows: NOD2 signaling inhibitors, cell-based, luminescence, uHTS, HEK293 (AID 1566). In kind it is functional.
Chain of Nucleotide-binding oligomerization domain-containing protein 2 (Q9HC29 whole entry, the tested form may be a part): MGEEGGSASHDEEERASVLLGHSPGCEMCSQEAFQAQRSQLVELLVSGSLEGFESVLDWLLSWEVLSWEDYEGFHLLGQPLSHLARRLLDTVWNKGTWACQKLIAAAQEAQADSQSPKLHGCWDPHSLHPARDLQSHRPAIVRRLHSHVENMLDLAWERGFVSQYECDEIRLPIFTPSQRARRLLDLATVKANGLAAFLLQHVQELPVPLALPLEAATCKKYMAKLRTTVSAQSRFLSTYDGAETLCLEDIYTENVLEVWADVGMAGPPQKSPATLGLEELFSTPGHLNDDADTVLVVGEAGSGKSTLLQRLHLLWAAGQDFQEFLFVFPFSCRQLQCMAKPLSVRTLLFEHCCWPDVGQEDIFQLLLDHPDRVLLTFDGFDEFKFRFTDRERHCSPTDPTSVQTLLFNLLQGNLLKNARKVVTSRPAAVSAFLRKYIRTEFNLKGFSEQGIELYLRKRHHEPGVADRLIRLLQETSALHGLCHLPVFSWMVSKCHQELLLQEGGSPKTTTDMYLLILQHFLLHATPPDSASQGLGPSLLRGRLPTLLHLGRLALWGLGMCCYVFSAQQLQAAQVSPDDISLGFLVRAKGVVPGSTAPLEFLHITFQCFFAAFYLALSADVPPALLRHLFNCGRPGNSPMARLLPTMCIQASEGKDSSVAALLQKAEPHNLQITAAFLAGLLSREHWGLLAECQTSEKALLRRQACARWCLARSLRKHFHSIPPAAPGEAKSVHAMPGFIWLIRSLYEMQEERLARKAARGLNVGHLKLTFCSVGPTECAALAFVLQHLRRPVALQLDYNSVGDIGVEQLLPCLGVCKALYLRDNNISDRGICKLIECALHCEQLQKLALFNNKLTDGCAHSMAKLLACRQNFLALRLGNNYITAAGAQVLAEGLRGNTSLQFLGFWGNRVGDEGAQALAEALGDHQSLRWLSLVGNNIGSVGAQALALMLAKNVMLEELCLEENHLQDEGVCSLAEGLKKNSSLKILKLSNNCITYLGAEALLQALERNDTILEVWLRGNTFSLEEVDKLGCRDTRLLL
Assay [10] deals with T2, Replicative DNA helicase DnaB (Mycobacterium tuberculosis, UniProt P9WMR3).
T2 sequence (P9WMR3 whole entry): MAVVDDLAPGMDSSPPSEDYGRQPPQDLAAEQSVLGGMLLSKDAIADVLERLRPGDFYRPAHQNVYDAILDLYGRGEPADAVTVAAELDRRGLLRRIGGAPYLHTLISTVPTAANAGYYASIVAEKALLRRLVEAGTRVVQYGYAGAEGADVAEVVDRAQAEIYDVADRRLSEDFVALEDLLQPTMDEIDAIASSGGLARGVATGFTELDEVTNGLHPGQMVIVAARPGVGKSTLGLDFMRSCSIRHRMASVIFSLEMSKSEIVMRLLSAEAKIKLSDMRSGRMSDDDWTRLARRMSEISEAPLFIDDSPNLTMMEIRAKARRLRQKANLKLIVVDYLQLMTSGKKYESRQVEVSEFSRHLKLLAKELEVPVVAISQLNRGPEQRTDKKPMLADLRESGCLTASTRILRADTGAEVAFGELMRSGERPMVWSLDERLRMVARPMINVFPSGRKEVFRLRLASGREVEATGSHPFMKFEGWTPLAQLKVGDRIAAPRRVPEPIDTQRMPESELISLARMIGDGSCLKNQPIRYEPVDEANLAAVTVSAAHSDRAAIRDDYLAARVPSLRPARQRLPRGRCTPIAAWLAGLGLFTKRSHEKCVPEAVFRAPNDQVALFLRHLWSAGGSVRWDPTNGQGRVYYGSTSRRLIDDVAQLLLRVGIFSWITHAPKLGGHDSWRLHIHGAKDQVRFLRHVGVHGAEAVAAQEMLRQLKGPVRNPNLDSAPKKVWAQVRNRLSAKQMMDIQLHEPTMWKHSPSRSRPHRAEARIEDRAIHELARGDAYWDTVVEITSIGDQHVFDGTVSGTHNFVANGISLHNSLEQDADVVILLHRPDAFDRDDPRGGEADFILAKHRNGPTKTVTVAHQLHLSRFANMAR
The assay is described as follows: DnaB intein splicing inhibitors, dose response, biochemical, cell-free fluorescence (AID 449749). It counts as functional.

Assay [11] concerns the target T3, Microphthalmia-associated transcription factor (Homo sapiens, UniProt O75030).
T3 sequence (O75030 whole entry): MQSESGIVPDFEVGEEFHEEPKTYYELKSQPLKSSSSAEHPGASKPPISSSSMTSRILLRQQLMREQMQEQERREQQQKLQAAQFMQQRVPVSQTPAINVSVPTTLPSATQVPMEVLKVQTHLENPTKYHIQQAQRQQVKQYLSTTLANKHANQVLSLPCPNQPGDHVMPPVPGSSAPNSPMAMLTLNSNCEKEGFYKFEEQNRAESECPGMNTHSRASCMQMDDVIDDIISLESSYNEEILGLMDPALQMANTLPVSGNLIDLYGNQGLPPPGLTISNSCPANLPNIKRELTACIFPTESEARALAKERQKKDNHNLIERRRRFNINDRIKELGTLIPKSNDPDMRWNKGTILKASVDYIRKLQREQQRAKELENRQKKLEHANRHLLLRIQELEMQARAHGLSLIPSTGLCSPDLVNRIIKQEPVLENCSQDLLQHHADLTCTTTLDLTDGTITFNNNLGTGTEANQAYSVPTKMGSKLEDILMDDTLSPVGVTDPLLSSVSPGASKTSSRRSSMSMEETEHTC
The assay is described as follows: TRPM1 promoter luciferase signal decrease, dose response, MITF inhibitor project, cell-based, SK-MEL-5, cherry-picked, set 3 (AID 493073).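 Also: SK-MEL-5 melanoma cells with luciferase driven by the MITF target TRPM1 promoter.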 It counts as functional.

Assay [12] relates to HEK293. The assay is described as follows: cells. It counts as functional, cell-based. As to conditions: Homo sapiens. This is another data set of the same source.
Assay [13] has as its system HEK293. Put plainly: cells. In kind it is functional, cell-based. As to conditions: Homo sapiens. This is another data set of the same source.
Assay [14] concerns HEK293. Put plainly: NOD2 signaling inhibitors in MDP-stimulated cells, cell-based, uHTS, luminescence (AID 2001). In kind it is functional. As to conditions: Homo sapiens.
The target in assay [15] is T4, Tyrosine-protein phosphatase non-receptor type 7 (Homo sapiens, UniProt P35236).
T4 sequence (P35236 whole entry): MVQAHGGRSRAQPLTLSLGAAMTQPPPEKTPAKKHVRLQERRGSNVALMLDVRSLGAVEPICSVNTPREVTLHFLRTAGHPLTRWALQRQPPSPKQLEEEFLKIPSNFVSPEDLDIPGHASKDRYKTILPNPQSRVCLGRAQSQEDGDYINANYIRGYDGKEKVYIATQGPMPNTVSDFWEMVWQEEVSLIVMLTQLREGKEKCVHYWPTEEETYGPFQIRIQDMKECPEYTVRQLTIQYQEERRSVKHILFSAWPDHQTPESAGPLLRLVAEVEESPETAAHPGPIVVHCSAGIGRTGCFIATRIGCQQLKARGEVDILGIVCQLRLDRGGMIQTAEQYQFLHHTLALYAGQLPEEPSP
The assay is described as follows: redox-dependent HePTP inhibition, mechanism study, biochemical, fluorescence (AID 2068). In kind it is functional.

Assay [16] has as its target T5, Dual specificity protein phosphatase 6 (Rattus norvegicus, UniProt Q64346).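 Also: confirmatory in vitro dose-response testing of MKP-3 inhibition; recombinant His-tagged MKP-3 made in E. coli BL21 with OMFP substrate.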
T5 sequence (Q64346 whole entry): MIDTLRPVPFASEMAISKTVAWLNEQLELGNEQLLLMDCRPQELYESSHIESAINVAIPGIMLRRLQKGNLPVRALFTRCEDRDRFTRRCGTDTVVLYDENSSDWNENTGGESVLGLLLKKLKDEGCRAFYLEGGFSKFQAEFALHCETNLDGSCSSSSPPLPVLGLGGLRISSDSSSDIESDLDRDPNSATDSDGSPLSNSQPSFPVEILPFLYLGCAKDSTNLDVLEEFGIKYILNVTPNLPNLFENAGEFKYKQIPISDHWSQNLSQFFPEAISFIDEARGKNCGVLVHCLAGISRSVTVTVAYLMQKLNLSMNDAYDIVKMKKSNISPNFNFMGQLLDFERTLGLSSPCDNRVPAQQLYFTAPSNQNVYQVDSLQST
It counts as functional.

The target of assay [17] is Dual specificity protein phosphatase 3 (Homo sapiens, UniProt P51452). The assay is described as follows: SAR VHR1 Fluorescent Assay for In Vitro dose response studies Set 2. [Related pubchem assays (depositor defined):AID1654, AID1661, AID1878]. It counts as functional.
Chain of Dual specificity protein phosphatase 3 (P51452 whole entry): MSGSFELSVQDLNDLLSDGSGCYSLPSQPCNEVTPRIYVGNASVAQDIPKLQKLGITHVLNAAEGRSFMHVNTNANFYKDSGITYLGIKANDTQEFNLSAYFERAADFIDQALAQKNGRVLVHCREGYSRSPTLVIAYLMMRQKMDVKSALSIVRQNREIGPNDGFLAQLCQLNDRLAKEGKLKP

Usually EC50 stands for the concentration giving half of the maximal effect. What is called IC50 is the point on the concentration scale where inhibition reaches its midpoint. By AC50 is commonly meant the midpoint of the concentration-response curve, whichever way the signal moves. For `O=C(CCl)Nc1cn(-c2ccccc2)nc1-c1ccccc1`, the 50% effective concentration (EC50) on Protein RecA is 6.32 µM (active); in the assay with HEK293 [2], 4.78 µM (active); in [4], 16.2 µM (active); in the assay on BJ [6], 14.4 µM (active); in the assay with BJ [7], > 150 µM (inconclusive); in the assay with BJ [8] it was 8.36 µM (active). Also, in [9], the EC50 was > 20 µM (inactive). Further, in assay [1], the CC50 was 6.92 µM (active). In addition, in assay [3], the “Absolute IC50 (CHOP)” value turned out to be 10 µM. The IC50 was > 20 µM (inactive) with HEK293 [5], 5.28 µM (active) in the assay with HEK293 [12], > 20 µM (inactive) in the assay with HEK293 [13] and 9.25 µM (active) with HEK293 [14]. For the same compound, the AC50 is 13.1 µM (active) in assay [10] and 14.5 µM (active) in assay [11].
In the case of `Cc1ccc(NC(=O)CN2C(=O)S/C(=C\c3ccc(C(=O)O)cc3)C2=O)cc1`, the IC50 in [15] was 14.4 µM (active); in assay [16], > 100 µM (inactive); in assay [17] it was > 100 µM (inactive).
